Data: article PMC5218480 (PLoS ONE, 2017)

System: MV-4-11 cells
Test: Gene expression microarray analysis (Affymetrix PrimeView) and GSEA
Assay type: cell-based, human
Design: RFU PODN (11730768_x_at) / Fold change /veh PODN (11730768_x_at) / RFU LINC00158 (11744669_a_at) / Fold change /veh LINC00158 (11744669_a_at) / RFU DUSP10 (11751237_a_at) / Fold change /veh DUSP10 (11751237_a_at) / RFU ID3 (11757404_x_at) / Fold change /veh ID3 (11757404_x_at) / RFU PLEKHG5 (11737974_s_at) / Fold change /veh PLEKHG5 (11737974_s_at) / RFU LRRC4B (11730491_at) / Fold change /veh LRRC4B (11730491_at) / RFU GIMAP4 (11747438_a_at) / Fold change /veh GIMAP4 (11747438_a_at) / RFU KRT8 (11758183_x_at) / Fold change /veh KRT8 (11758183_x_at) / RFU CNN1 (11734310_a_at) / Fold change /veh CNN1 (11734310_a_at) / RFU VPS37D (11726825_at) / Fold change /veh VPS37D (11726825_at) / RFU C10orf10 (11716522_x_at) / Fold change /veh C10orf10 (11716522_x_at) / RFU KIR2DL2 /// KIR2DL4 /// KIR2DL5A /// KIR2DL5B /// KIR2DS1 /// KIR2DS2 /// KIR2DS3 /// KIR2DS4 /// KIR3DL3 /// KIR3DL3 /// KIR3DS1 (11738374_at) / Fold change /veh KIR2DL2 /// KIR2DL4 /// KIR2DL5A /// KIR2DL5B /// KIR2DS1 /// KIR2DS2 /// KIR2DS3 /// KIR2DS4 /// KIR3DL3 /// KIR3DL3 /// KIR3DS1 (11738374_at) / RFU C1QL1 (11718748_at) / Fold change /veh C1QL1 (11718748_at) / RFU TMPRSS4 (11747572_a_at) / Fold change /veh TMPRSS4 (11747572_a_at) / RFU HAMP (11756126_x_at) / Fold change /veh HAMP (11756126_x_at) / RFU RNFT2 (11725882_a_at) / Fold change /veh RNFT2 (11725882_a_at) / RFU NR4A2 (11747474_a_at) / Fold change /veh NR4A2 (11747474_a_at) / RFU ABCC12 (11746883_a_at) / Fold change /veh ABCC12 (11746883_a_at) / RFU TMEM136 (11760407_x_at) / Fold change /veh TMEM136 (11760407_x_at) / RFU CLDN22 /// WWC2 (11732394_at) / Fold change /veh CLDN22 /// WWC2 (11732394_at) / RFU HLA-DPB1 (11760878_x_at) / Fold change /veh HLA-DPB1 (11760878_x_at) / RFU SPINT1 (11716480_a_at) / Fold change /veh SPINT1 (11716480_a_at) / RFU GAP43 (11754022_s_at) / Fold change /veh GAP43 (11754022_s_at) / RFU A4GNT (11735810_at) / Fold change /veh A4GNT (11735810_at) / RFU PRB3 (11715151_x_at) / Fold change /veh PRB3 (11715151_x_at) / RFU TUBB4B (11761932_at) / Fold change /veh TUBB4B (11761932_at) / RFU CAPN14 (11732068_a_at) / Fold change /veh CAPN14 (11732068_a_at) / RFU TMCC2 (11721928_a_at) / Fold change /veh TMCC2 (11721928_a_at) / RFU IRGQ (11745062_a_at) / Fold change /veh IRGQ (11745062_a_at) / RFU FAM174B (11720279_a_at) / Fold change /veh FAM174B (11720279_a_at) / RFU TMPRSS4 (11748680_a_at) / Fold change /veh TMPRSS4 (11748680_a_at) / RFU FAM212B (11763350_a_at) / Fold change /veh FAM212B (11763350_a_at) / RFU PLEKHG5 (11743358_a_at) / Fold change /veh PLEKHG5 (11743358_a_at) / RFU ZSCAN30 (11745921_a_at) / Fold change /veh ZSCAN30 (11745921_a_at) / RFU CMKLR1 (11741424_a_at) / Fold change /veh CMKLR1 (11741424_a_at) / RFU LOC101060620 /// MAPK8IP1 (11723275_at) / Fold change /veh LOC101060620 /// MAPK8IP1 (11723275_at) / RFU SPTSSB (11747773_x_at) / Fold change /veh SPTSSB (11747773_x_at) / RFU PRSS12 (11739890_at) / Fold change /veh PRSS12 (11739890_at) / RFU BIN1 (11741810_x_at) / Fold change /veh BIN1 (11741810_x_at) / RFU WNT11 (11732464_a_at) / Fold change /veh WNT11 (11732464_a_at) / RFU C10orf10 (11716521_a_at) / Fold change /veh C10orf10 (11716521_a_at) / RFU C5orf56 (11738089_at) / Fold change /veh C5orf56 (11738089_at) / RFU CYB561 (11721691_x_at) / Fold change /veh CYB561 (11721691_x_at) / RFU ANKRD19P (11752326_a_at) / Fold change /veh ANKRD19P (11752326_a_at) / RFU OR2T12 /// OR2T33 /// OR2T8 (11738714_s_at) / Fold change /veh OR2T12 /// OR2T33 /// OR2T8 (11738714_s_at) / RFU VCAN (11748164_a_at) / Fold change /veh VCAN (11748164_a_at) / RFU JSRP1 (11732532_at) / Fold change /veh JSRP1 (11732532_at) / RFU KRTAP10-11 (11738290_x_at) / Fold change /veh KRTAP10-11 (11738290_x_at) / RFU MYO3A (11730013_a_at) / Fold change /veh MYO3A (11730013_a_at) / RFU EBF3 (11725865_a_at) / Fold change /veh EBF3 (11725865_a_at) / RFU CAMK2N1 (11719241_x_at) / Fold change /veh CAMK2N1 (11719241_x_at) / RFU C5orf56 (11738088_a_at) / Fold change /veh C5orf56 (11738088_a_at) / RFU OLFML3 (11715873_a_at) / Fold change /veh OLFML3 (11715873_a_at) / RFU LOC100653217 /// NTM (11731650_a_at) / Fold change /veh LOC100653217 /// NTM (11731650_a_at) / RFU MAPK11 (11762145_a_at) / Fold change /veh MAPK11 (11762145_a_at) / RFU FIZ1 (11724087_x_at) / Fold change /veh FIZ1 (11724087_x_at) / RFU OASL (11726364_x_at) / Fold change /veh OASL (11726364_x_at) / RFU SOX15 (11748057_x_at) / Fold change /veh SOX15 (11748057_x_at) / RFU CD79A (11719716_a_at) / Fold change /veh CD79A (11719716_a_at) / RFU HIST1H1D (11736915_at) / Fold change /veh HIST1H1D (11736915_at) / RFU CASKIN2 (11723855_a_at) / Fold change /veh CASKIN2 (11723855_a_at) / RFU LOC730098 (11760151_x_at) / Fold change /veh LOC730098 (11760151_x_at) / RFU OR4N2 (11742367_at) / Fold change /veh OR4N2 (11742367_at) / RFU PRRT2 (11749266_a_at) / Fold change /veh PRRT2 (11749266_a_at) / RFU SNX32 (11753110_a_at) / Fold change /veh SNX32 (11753110_a_at) / RFU CDHR5 (11726645_a_at) / Fold change /veh CDHR5 (11726645_a_at) / RFU RCAN1 (11760418_a_at) / Fold change /veh RCAN1 (11760418_a_at) / RFU FAM167A (11723789_a_at) / Fold change /veh FAM167A (11723789_a_at) / RFU FAM26E (11764081_at) / Fold change /veh FAM26E (11764081_at) / RFU ISYNA1 (11749810_s_at) / Fold change /veh ISYNA1 (11749810_s_at) / RFU ACY1 (11761880_at) / Fold change /veh ACY1 (11761880_at) / RFU 11764098_at / Fold change /veh 11764098_at / RFU SAMD14 (11745864_x_at) / Fold change /veh SAMD14 (11745864_x_at) / RFU NPB (11741838_a_at) / Fold change /veh NPB (11741838_a_at) / RFU TMPRSS6 (11731388_a_at) / Fold change /veh TMPRSS6 (11731388_a_at) / RFU KRTAP10-2 (11738614_at) / Fold change /veh KRTAP10-2 (11738614_at) / RFU ARHGAP8 /// PRR5-ARHGAP8 (11727945_x_at) / Fold change /veh ARHGAP8 /// PRR5-ARHGAP8 (11727945_x_at) / RFU KRTAP5-7 /// NADSYN1 (11734609_at) / Fold change /veh KRTAP5-7 /// NADSYN1 (11734609_at) / RFU RASL12 (11751679_a_at) / Fold change /veh RASL12 (11751679_a_at) / RFU CDKN2B (11736163_a_at) / Fold change /veh CDKN2B (11736163_a_at) / RFU PRF1 (11729649_at) / Fold change /veh PRF1 (11729649_at) / RFU, ZNF638 /// ZNF638-IT1 / Fold change vs veh, ZNF638 /// ZNF638-IT1 / RFU, PANK3 / Fold change vs veh, PANK3 / RFU, SH3YL1 / Fold change vs veh, SH3YL1 / RFU, ZEB2 / Fold change vs veh, ZEB2 / RFU, NRIP1 / Fold change vs veh, NRIP1 / RFU, PTTG1IP / Fold change vs veh, PTTG1IP / RFU, CAPN2 / Fold change vs veh, CAPN2 / RFU, MED14 / Fold change vs veh, MED14 / RFU, SNORA58 / Fold change vs veh, SNORA58 / RFU, C1orf63 / Fold change vs veh, C1orf63 / RFU, LRRFIP1 / Fold change vs veh, LRRFIP1 / RFU, NDUFAF7 / Fold change vs veh, NDUFAF7 / RFU, SLC12A2 / Fold change vs veh, SLC12A2 / RFU, IBTK / Fold change vs veh, IBTK / RFU, ESF1 / Fold change vs veh, ESF1 / Fold change vs veh, TMEM50B / RFU, TAOK1 / Fold change vs veh, TAOK1 / RFU, ACBD3 / Fold change vs veh, ACBD3 / RFU, TMA16 / Fold change vs veh, TMA16 / RFU, RWDD3 / Fold change vs veh, RWDD3 / RFU, BCAT1 / Fold change vs veh, BCAT1 / RFU, EDEM3 / Fold change vs veh, EDEM3 / RFU, TMEM33 / Fold change vs veh, TMEM33 / RFU, WDR75 / Fold change vs veh, WDR75 / RFU, AHCTF1 / Fold change vs veh, AHCTF1 / RFU, TFRC / Fold change vs veh, TFRC / RFU, ZDHHC17 / Fold change vs veh, ZDHHC17 / RFU, NOM1 / Fold change vs veh, NOM1 / RFU, ARL8B / Fold change vs veh, ARL8B / RFU, ZBTB11 / Fold change vs veh, ZBTB11 / RFU, TAMM41 / Fold change vs veh, TAMM41 / RFU, KIAA1704 /// LOC100996395 / Fold change vs veh, KIAA1704 /// LOC100996395 / RFU, ING1 / Fold change vs veh, ING1 / RFU, TRMT61B / Fold change vs veh, TRMT61B / RFU, FUBP3 / Fold change vs veh, FUBP3 / RFU, TP53 / Fold change vs veh, TP53 / RFU, TNKS2 / Fold change vs veh, TNKS2 / RFU, ZFP14 / Fold change vs veh, ZFP14 / RFU, ACTR2 / Fold change vs veh, ACTR2 / RFU, PPP3R1 / Fold change vs veh, PPP3R1 / RFU, PIK3R1 / Fold change vs veh, PIK3R1 / RFU, HNRNPA1 / Fold change vs veh, HNRNPA1 / RFU, RNF170 / Fold change vs veh, RNF170 / RFU, ZNF28 / Fold change vs veh, ZNF28 / RFU, RNGTT / Fold change vs veh, RNGTT / RFU, OGT / Fold change vs veh, OGT / RFU, BRD1 / Fold change vs veh, BRD1 / RFU, MARS / Fold change vs veh, MARS / RFU, ZNF655 / Fold change vs veh, ZNF655 / RFU, FAHD1 / Fold change vs veh, FAHD1 / RFU, BDP1 / Fold change vs veh, BDP1 / RFU, LRRCC1 / Fold change vs veh, LRRCC1 / RFU, ARID1A / Fold change vs veh, ARID1A / RFU, ZNF146 / Fold change vs veh, ZNF146 / RFU, ZNF330 / Fold change vs veh, ZNF330 / RFU, GPN3 / Fold change vs veh, GPN3 / RFU, C9orf123 / Fold change vs veh, C9orf123 / RFU, N4BP2L2 / Fold change vs veh, N4BP2L2 / RFU, ARFIP1 / Fold change vs veh, ARFIP1 / RFU, FAM179B / Fold change vs veh, FAM179B / RFU, BCL10 / Fold change vs veh, BCL10 / RFU, UHRF1BP1L / Fold change vs veh, UHRF1BP1L / RFU, BET1 / Fold change vs veh, BET1 / RFU, CNOT2 / Fold change vs veh, CNOT2 / RFU, ZNF268 / Fold change vs veh, ZNF268 / Fold change vs veh, ZNF507 / RFU, DGCR2 / Fold change vs veh, DGCR2 / RFU, WDSUB1 / Fold change vs veh, WDSUB1 / Fold change vs veh, HSP90B1 /// MIR3652 / RFU, ADSS / Fold change vs veh, ADSS / RFU, GK / Fold change vs veh, GK / RFU, ZNF148 / Fold change vs veh, ZNF148 / RFU, TAF9 / Fold change vs veh, TAF9 / RFU, SLC1A5 / Fold change vs veh, SLC1A5 / RFU, SLMO2 / Fold change vs veh, SLMO2 / RFU, ABCC4 / Fold change vs veh, ABCC4 / RFU, LOC101060439 /// RAP1B / Fold change vs veh, LOC101060439 /// RAP1B / RFU, RFX7 / Fold change vs veh, RFX7 / RFU, GTPBP10 / Fold change vs veh, GTPBP10 / RFU, CNEP1R1 / Fold change vs veh, CNEP1R1 / RFU, BIVM-ERCC5 /// ERCC5 / Fold change vs veh, BIVM-ERCC5 /// ERCC5 / RFU, ILF3 / Fold change vs veh, ILF3 / RFU 11762660_at / Fold change /veh 11762660_at / RFU VCAN (11757783_s_at) / Fold change /veh VCAN (11757783_s_at) / RFU DDX43 (11728927_at) / Fold change /veh DDX43 (11728927_at) / RFU KRT8 (11758188_x_at) / Fold change /veh KRT8 (11758188_x_at) / RFU NKD1 (11759106_at) / Fold change /veh NKD1 (11759106_at) / RFU SRD5A1 (11742802_a_at) / Fold change /veh SRD5A1 (11742802_a_at) / RFU TPSAB1 /// TPSB2 (11721975_s_at) / Fold change /veh TPSAB1 /// TPSB2 (11721975_s_at) / RFU GSTM3 (11746129_a_at) / Fold change /veh GSTM3 (11746129_a_at) / RFU IL23R (11737362_x_at) / Fold change /veh IL23R (11737362_x_at) / RFU TMEM51 (11727254_a_at) / Fold change /veh TMEM51 (11727254_a_at) / RFU PIWIL2 (11732686_x_at) / Fold change /veh PIWIL2 (11732686_x_at) / RFU ORM1 (11744905_x_at) / Fold change /veh ORM1 (11744905_x_at) / RFU CCDC152 (11743942_at) / Fold change /veh CCDC152 (11743942_at) / RFU ECM1 (11717891_a_at) / Fold change /veh ECM1 (11717891_a_at) / RFU IL23R (11748794_a_at) / Fold change /veh IL23R (11748794_a_at) / RFU TNFAIP8L3 (11732012_x_at) / Fold change /veh TNFAIP8L3 (11732012_x_at) / RFU MBOAT4 (11741988_at) / Fold change /veh MBOAT4 (11741988_at) / RFU 11764193_at / Fold change /veh 11764193_at / RFU TMEM53 (11763286_at) / Fold change /veh TMEM53 (11763286_at) / RFU MAGEB2 (11727129_at) / Fold change /veh MAGEB2 (11727129_at) / RFU TMEM200A (11744735_a_at) / Fold change /veh TMEM200A (11744735_a_at) / RFU CCDC152 (11751479_a_at) / Fold change /veh CCDC152 (11751479_a_at) / RFU FAM211A (11726209_a_at) / Fold change /veh FAM211A (11726209_a_at) / RFU RGS16 (11746705_a_at) / Fold change /veh RGS16 (11746705_a_at) / RFU VCAN (11755009_s_at) / Fold change /veh VCAN (11755009_s_at) / RFU RHOB (11743442_s_at) / Fold change /veh RHOB (11743442_s_at) / RFU RGS16 (11720943_a_at) / Fold change /veh RGS16 (11720943_a_at) / RFU RGS16 (11720944_at) / Fold change /veh RGS16 (11720944_at) / RFU, VPS4B / Fold change vs veh, VPS4B / RFU, CREB1 / Fold change vs veh, CREB1 / RFU, DNAJC13 / Fold change vs veh, DNAJC13 / RFU, GNAQ / Fold change vs veh, GNAQ / RFU, CDK5R1 / Fold change vs veh, CDK5R1 / RFU, ZRANB3 / Fold change vs veh, ZRANB3 / RFU, CUL4A / Fold change vs veh, CUL4A / RFU, CCNY / Fold change vs veh, CCNY / RFU, UFL1 / Fold change vs veh, UFL1 / RFU, COG3 / Fold change vs veh, COG3 / RFU, DIAPH2 / Fold change vs veh, DIAPH2 / RFU, SKA2 / Fold change vs veh, SKA2 / RFU, AFF3 / Fold change vs veh, AFF3 / RFU, LMF1 / Fold change vs veh, LMF1 / RFU, IPO11 / Fold change vs veh, IPO11 / RFU, DFFB / Fold change vs veh, DFFB / RFU, FOXP1 / Fold change vs veh, FOXP1 / RFU, CARD8 / Fold change vs veh, CARD8 / RFU, STRN3 / Fold change vs veh, STRN3 / RFU, ADK / Fold change vs veh, ADK / RFU, RASSF2 / Fold change vs veh, RASSF2 / RFU, WIPF1 / Fold change vs veh, WIPF1 / RFU, LARP1B / Fold change vs veh, LARP1B / RFU, RASA1 / Fold change vs veh, RASA1 / RFU, RB1 / Fold change vs veh, RB1 / RFU, PPFIA1 / Fold change vs veh, PPFIA1 / RFU, MAT2A / Fold change vs veh, MAT2A / RFU, CCT5 / Fold change vs veh, CCT5 / RFU, WDR92 / Fold change vs veh, WDR92 / RFU, CUX1 / Fold change vs veh, CUX1 / RFU, TTC7A / Fold change vs veh, TTC7A / RFU, TMEM135 / Fold change vs veh, TMEM135 / RFU, DEPTOR / Fold change vs veh, DEPTOR / RFU, CPM / Fold change vs veh, CPM / RFU, DNAJB6 / Fold change vs veh, DNAJB6 / RFU, CACNA2D3 / Fold change vs veh, CACNA2D3 / RFU, DTX4 / Fold change vs veh, DTX4 / RFU, TFCP2 / Fold change vs veh, TFCP2 / RFU, GMCL1 /// GMCL1P1 / Fold change vs veh, GMCL1 /// GMCL1P1 / RFU, AEBP2 / Fold change vs veh, AEBP2 / RFU, SNHG1 /// SNORD22 /// SNORD25 /// SNORD26 /// SNORD27 /// SNORD28 /// SNORD29 /// SNORD31 / Fold change vs veh, SNHG1 /// SNORD22 /// SNORD25 /// SNORD26 /// SNORD27 /// SNORD28 /// SNORD29 /// SNORD31 / Fold change (Aza/veh), C12orf56 (ProbeSet 11735607_a_at) / Fold change (ACY-1035/veh), C12orf56 (ProbeSet 11735607_a_at) / Fold change (Aza/veh), FGFR1OP (ProbeSet 11751329_s_at) / Fold change (ACY-1035/veh), FGFR1OP (ProbeSet 11751329_s_at) / Fold change (Aza/veh), VPS36 (ProbeSet 11739960_a_at) / Fold change (ACY-1035/veh), VPS36 (ProbeSet 11739960_a_at) / RFU SYPL1 (11715823_x_at) / Fold change /veh SYPL1 (11715823_x_at) / RFU IGFBP7 (11715501_s_at) / Fold change /veh IGFBP7 (11715501_s_at) / RFU REEP3 (11722064_at) / Fold change /veh REEP3 (11722064_at) / RFU IGLL1 (11728026_x_at) / Fold change /veh IGLL1 (11728026_x_at): dose or concentration left out as unconfirmed
Conditions: MV-4-11 cells, 48 hours

## Nc1ncn([C@@H]2O[C@H](CO)[C@@H](O)[C@H]2O)c(=O)n1 [azacitidine]
  RFU TMPRSS4 (11747572_a_at): 53.17 RFU
